The target of one test is Kir1.1 (ROMK1) (Homo sapiens (Human), UniProt P48048). Kind of test: ROMK electrophysiology assay (IonWorks Quattro whole cell voltage clamp).
Sequence of Kir1.1 (ROMK1) (P48048 whole entry): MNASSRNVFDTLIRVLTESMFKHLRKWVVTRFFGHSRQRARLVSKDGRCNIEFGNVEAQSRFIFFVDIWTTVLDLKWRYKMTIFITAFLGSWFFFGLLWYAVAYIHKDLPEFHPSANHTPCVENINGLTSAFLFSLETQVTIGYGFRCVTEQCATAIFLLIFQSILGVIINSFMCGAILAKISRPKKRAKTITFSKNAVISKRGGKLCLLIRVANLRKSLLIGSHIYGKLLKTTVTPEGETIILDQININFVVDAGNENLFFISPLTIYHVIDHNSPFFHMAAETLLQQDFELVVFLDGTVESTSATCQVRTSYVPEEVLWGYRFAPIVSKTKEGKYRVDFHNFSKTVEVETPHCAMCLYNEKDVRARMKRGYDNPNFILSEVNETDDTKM
Details: not given
Format: cell-based. A general note: In patch-clamp work, channel activity is measured electrically.
As to `O=C1OCc2cc(CCN3CCCN(C(=O)Cc4ccc(-n5cnnn5)cc4)CC3)ccc21` [Example 11], the IC50 turned out to be 0.012 µM.
Same read-out and setting: next, `COc1cc(CC(=O)N2CCN(CCc3ccc4c(c3C)COC4=O)CC2)c(F)cc1C#N` [Example 48]: 0.035 µM.

Still in this test, the particulars now being: Chinese hamster ovary cells stably expressing Kir1.1; block during voltage step to 0 mV; 6 min compound incubation; read-out: ROMK Electrophysiology Assay IC50.
For the compound `N#Cc1ccc(CCN2CCN(C(=O)Cc3ccc(-n4cnnn4)cc3)CC2)cc1F` [Example 39], the IC50 was 0.063 µM.
The same measure, in the same setting: as for `Cc1c(CCN2CCN(C(=O)Cc3ccc(-n4cnnn4)cc3)CC2)ccc(F)c1C#N` [Example 122], the figure is 0.037 µM; as for `C[C@H]1Cc2cc(CCN3CCN(C(=O)C4CCc5nc(-n6cnnn6)ccc54)CC3)ccc2C(=O)O1` (single isomer, unassigned) [Example 177], 0.1 µM; as for `Cc1c(CCN2CCN(C(=O)C3CCc4nc(-n5cnnn5)ccc43)CC2)ccc2c1COC2=O` (single isomer, unassigned) [Example 96], 0.061 µM.
The same measure, in the same setting: as for `Cc1c([C@@H](O)CN2CCN(C(=O)Cc3ccc(-n4cnnn4)nc3)C3CC32)ccc2c1COC2=O` (stereo partly drawn) [Example 217, 5-[(1R)-1-hydroxy-2-(5-{[6-(1H-tetrazol-1-yl)pyridin-3-yl]acetyl}-2,5-diazabicyclo[4.1.0]hept-2-yl)ethyl]-4-methyl-2-benzofuran-1(3H)-one], the figure is 0.056 µM; as for `Cc1c(CCN2CCN(C(=O)Cc3cc(F)c(C#N)cc3F)CC2)ccc2c1COC2=O` [Example 59], 0.094 µM.

As usually defined, the IC50 is the concentration that gives 50% inhibition.

These data come from patent US9056859B2, “Inhibitors of the renal outer medullary potassium channel” (Merck Sharp & Dohme Corp., priority 2010, dated 2015).
